Literature values as cited in US20240108699A1 (priority 2022, published 2024).

Conditions: in vivo

Botulinum toxin complex A [BoNT-A]
time for which effects are maintained: three to six
